Experimental data as given in US20070059299A1, “S-adenosyl methionine decarboxylase inhibition for the treatment of a herpes simplex virus infection” (Institut National de la Sante et de la Recherche Medicale …, priority 2002, published 2007).
Read-outs that look alike come from different tables or passages of the source.

What was measured:
[1] = test system: HSV-1 macroplaque strain (MP); assay type: cell-based; settings: for less syncytia formed than in control infected without MGBG: no pre-treatment, 24 h
Experimental: HEp2 cells were grown as monolayers in Eagle's minimum essential medium (E-MEM) supplemented or not with 5% heat-inactivated foetal calf serum (FCS) and supplemented with 100 U/ml penicillin and 100 U/ml streptomycin. The cells were maintained at 37° C. under 5% CO2. The HSV-1 macroplaque strain (MP), obtained from B. Jacquemont (Lyon, France), was a gift of B. Roizman (Chicago, Ill., U.S.A.), and was used throughout this study. Viruses were grown in HEp2 cells.
HEp2 cells were grown in 6-well plates (˜10^6 cells/well) and infected just before confluence with a multiplicity of infection (m.o.i.) of 0.5 plaque-forming units (PFU) per cell in E-MEM in absence of FCS, except for some experiments. After adsorption of the virus for 1 h at 33° C. under 5% CO2, the medium containing the virus suspension was removed and the cells were washed with E-MEM, then incubated in E-MEM without FCS at 37° C. for different periods of times until harvest. Times post-infection (p.i.) were calculated from the time of addition of the virus suspension. HEp2 cells were exposed to MGBG treatment for different times. When cells were pre-treated with MGBG prior infection, MGBG was added to cell medium 6 h or 24 h prior infection until harvest. In non pre-treated cells, MGBG was added simultaneously with virus suspension, or 2 h, 4 h or 6 h latter. When cells were treated for more than 24 h, medium was replaced every 24 h with fresh medium containing the same concentration of MGBG.
Accordingly, the effect of inactivation of enzymes involved in polyamine biosynthesis upon HSV-1 infection inhibition was assessed. The HSV-1 MP strain was used throughout this study for its ability to induce the formation of large syncytia from infected cells. Therefore, it was possible to easily and quickly investigate the inhibition of viral replication at the level of syncytia formation.
To investigate the effect of the concentration of MGBG on viral infection, HEp2 cells were infected with 0.5 PFU of HSV-1 per cell in FCS free medium in which 10 μM to 300 μM MGBG was added from the adsorption step of the virus until the end of the experiment. After 24 h of infection, the formation of syncytia was observed, and the number of syncytia was estimated by counting using the optical microscope.
HEp2 cell were pre-treated with MGBG by incubation in FCS free medium containing 10 to 300 μM MGBG 6h to 24 h before infection. Then cells were infected as described above and MGBG was maintained in the medium until the end of the experiment.

HEp2 cells = assay: Estimation of growth and viability of uninfected HEp2 cells (trypan blue counting); assay type: cell-based
Experimental: Uninfected HEp2 cells were grown in the absence (control) and the presence of 10 to 500 μM of MGBG for 24 h, 30 h and 48 h. Every 24 h, medium was replaced with fresh medium containing the same concentration of MGBG. At the time of harvesting, culture medium was collected from wells of untreated control cells and treated cells. Then cells from the monolayers were gently trypsinized and added to the corresponding previous cell culture medium. Total cells were collected by gentle centrifugation at 500×g and were resuspended in PBS containing 0.2% trypan blue. For each experiment, total cells, living cells and dead cells were counted.
The effect of MGBG on cell growth and viability was investigated. HEp2 cells were incubated in FCS free medium, in the presence of 10 μM to 500 μM of MGBG for 24 h, 30 h and 48 h. After harvesting, total cells, living cells and dead cells were counted.

[2] = test system: foscarnet-resistant reference strain TP 2.5; assay: Antiviral susceptibility testing by ELISA on HEp-2 cells, strain TP 2.5; assay type: cell-based, HSV 1; settings: median of at least three assays, drugs diluted in μM, read-out: Susceptibility of strain TP2.5 (concentration causing 50% inhibition of viral replication, IC50), median
Experimental: Three HSV 1 reference strains were tested : SC16 (acyclovir-susceptible reference strain; (Hill et al., 1975)), DM21 (acyclovir-resistant reference strain derived from SC16; (Efstathiou et al., 1989)) and TP 2.5 (foscarnet-resistant reference strain derived from SC16; (Larder and Darby, 1985)). Antiviral assays were performed in duplicate on HEp-2 cells seeded in 96 wells microplates. Dilutions of virus and drugs were prepared in E-MEM without FCS. Cells were first treated for 24 hours with MGBG using a series of 6 twofold serial dilutions from 12.5 to 400 μM. Infection was then achieved with 5 tenfold dilutions of cell-associated virus (10^−1 to 10^−5). Each dilution was incubated with a series of 6 concentrations of each antiviral drug (from 12.5 to 400 μM in twofold dilutions for MGBG, from 0.16 to 500 μM in fivefold dilutions for acyclovir and from 31 to 1000 μM in twofold dilutions for foscarnet). […] After incubation at 36° C. with 5% CO2 for 24 hours post-infection, medium was replaced with freshly prepared dilutions of MGBG. Viral multiplication was checked 24 hours afterwards by an ELISA (Morfin et al., 1999), using a rabbit monoclonal anti-HSV 1 antibody (BO 114, Dako) and a protein A peroxidase-conjugated (BioRad). The substrate, 2,2′-azino-di(3-ethyl-benzthiazoline) sulfonic acid (ABTS) diluted in ABTS buffer (Boehringer, Mannheim), was added to each well. After 30 min at room temperature, the plates were briefly agitated and optical densities were read at 405 nm with a multichannel spectrophotomoter (Titertek-Multiskan). Optical density values were used with the Biolise program (Life Sciences International) to calculate the concentration of the drug causing a 50% inhibition of viral replication (IC50) by logistic regression analysis.
The capacity of MGBG to preclude infection of three HSV-1 acyclovir and/or foscarnet resistant strains was tested. […] The ED values were determined.

[3] = test system: HSV-1 clinical acyclovir or foscarnet resistant isolates
HSV = settings: McCormick and Newton, 1975; Tyms et al., 1979; cited from earlier work

CC(C=NNC(=N)N)=NNC(=N)N [MGBG, methylglyoxal bis(guanylhydrazone)]
size and number of syncytia ([1]; 10 μM MGBG added simultaneously with virus, 0.5 PFU/cell, FCS free, 24 h of infection): the size but not the number of syncytia was reduced | less syncytia formed than in control infected without MGBG ([1]; 50 μM MGBG added with virus, 0.5 PFU/cell, FCS free): 50% | viral replication (syncytia) ([1]; 100 μM MGBG added 2 h after the beginning of infection): totally inhibited | viral replication (syncytia) ([1]; 100 μM MGBG added 4 h or 6 h after the adsorption step): partially inhibited | less syncytia formed than in control infected without MGBG ([1]; 100 μM MGBG added with virus, 0.5 PFU/cell, FCS free): 95% | viral infection compared to cells infected without MGBG ([1]; 100 μM MGBG alone added simultaneously with viral suspension): strongly reduced | less syncytia formed than in control infected without MGBG ([1]; 200 μM MGBG added with virus, 0.5 PFU/cell, FCS free): about 99% | inhibition of viral infection in cells grown with 5% FCS compared with FCS free medium ([1]; 5% FCS, different concentrations of MGBG): significantly less efficient | antiviral effect of MGBG and ACV in combination versus alone (syncytia formation) ([1]; HEp2 cells, 0.5 PFU of HSV-1 per cell): potentiates the antiviral effect of ACV | HSV-1 infection of HEp2 cells in the presence of MGBG ([1]; MGBG at micromolar concentration): inhibited | inhibition of viral infection ([1]; cells pre-treated for 6 and 24 h with at least 25 μM MGBG): more than 80% | syncytia formed compared to cells infected in the absence of MGBG ([1]; cells pre-treated for 6 h with 10 μM MGBG, FCS free): 70% | syncytia formed compared to cells infected in the absence of MGBG ([1]; cells pre-treated for 24 h with 10 μM MGBG, FCS free): 36% | percentage of dead cells of total cells (HEp2 cells; 25 μM MGBG, 48 h): 10% | percentage of dead cells of total cells (HEp2 cells; 500 μM MGBG, 24 h): 9% | percentage of dead cells of total cells (HEp2 cells; 500 μM MGBG, 30 h): 24% | cell growth (HEp2 cells; 500 μM MGBG, FCS free): did not grow anymore | growth rate of cells compared to control cells grown without MGBG (HEp2 cells; 24 h and 30 h, less than 200 μM MGBG, FCS free): no drastic difference | percentage of dead cells of total cells (HEp2 cells; less than 500 μM MGBG for 24 h and 30 h, less than 25 μM MGBG for 48 h): ≤ 5% | IC50 [2]: 82 µM | replication of HSV-1 clinical acyclovir or foscarnet resistant isolates [3]: inhibited replication | effect on HSV replication (HSV): no effect
